What was measured:
Experiment in all cases: FRET quenching titration (qPCR instrument)
Details in all cases: 150 mM KCl, 15 mM NaCl; 20 mM Tris pH 7.4, 37 °C, 1 µM DNA; duplex shifted to quadruplex, complete at 50 µM pyridostatin
[1] = system: A:THF (Tel22-T annealed to complement with abasic site) (DNA, mismatch bulge abasic, tetrahydrofuran (THF) abasic site at 10 of strand 2) AGGGTTAGGGTTAGGGTTAGGG/CCCTAACCCNAACCCTAACCCT
[2] = system: A:Gap (Tel22-T annealed to two shorter complements, one-base gap) (DNA, duplex, 5'-phosphate on strand 3; one-base gap between strands 2 and 3) AGGGTTAGGGTTAGGGTTAGGG/CCCTAACCC/AACCCTAACCCT
[3] = system: A:U (Tel22-T annealed to U-containing complement) (DNA, duplex, 2'-deoxyuridine at 10 of strand 2) AGGGTTAGGGTTAGGGTTAGGG/CCCTAACCCUAACCCTAACCCT

- binding [1]: yes
- binding [2]: yes
- binding [3]: yes
Structure (SMILES): NCCOc1cc(C(=O)Nc2cc(OCCN)c3ccccc3n2)nc(C(=O)Nc2cc(OCCN)c3ccccc3n2)c1
